Laboratory results from PMC7170299, “Design, synthesis, molecular modelling and biological evaluation of novel 3-(2-naphthyl)-1-phenyl-1H-pyrazole derivatives as potent antioxidants and 15-Lipoxygenase inhibitors” (Journal of Enzyme Inhibition and Medicinal Chemistry, 2020).

Columns and labels:
Soybean 15-LOX enzyme = target: T1, Soybean 15-LOX enzyme (Glycine max, UniProt P08170); experiment: In vitro lipoxygenase inhibition (Cayman lipoxygenase inhibitor screening assay kit); assay type: biochemical; conditions: for IC50: mean ± SEM of three experiments, substrate arachidonic acid; for 15-LOX inhibition potency relative to quercetin: folds that of quercetin
T1 construct: purchased Cayman Chemical 760700
T1 sequence (P08170 1-839): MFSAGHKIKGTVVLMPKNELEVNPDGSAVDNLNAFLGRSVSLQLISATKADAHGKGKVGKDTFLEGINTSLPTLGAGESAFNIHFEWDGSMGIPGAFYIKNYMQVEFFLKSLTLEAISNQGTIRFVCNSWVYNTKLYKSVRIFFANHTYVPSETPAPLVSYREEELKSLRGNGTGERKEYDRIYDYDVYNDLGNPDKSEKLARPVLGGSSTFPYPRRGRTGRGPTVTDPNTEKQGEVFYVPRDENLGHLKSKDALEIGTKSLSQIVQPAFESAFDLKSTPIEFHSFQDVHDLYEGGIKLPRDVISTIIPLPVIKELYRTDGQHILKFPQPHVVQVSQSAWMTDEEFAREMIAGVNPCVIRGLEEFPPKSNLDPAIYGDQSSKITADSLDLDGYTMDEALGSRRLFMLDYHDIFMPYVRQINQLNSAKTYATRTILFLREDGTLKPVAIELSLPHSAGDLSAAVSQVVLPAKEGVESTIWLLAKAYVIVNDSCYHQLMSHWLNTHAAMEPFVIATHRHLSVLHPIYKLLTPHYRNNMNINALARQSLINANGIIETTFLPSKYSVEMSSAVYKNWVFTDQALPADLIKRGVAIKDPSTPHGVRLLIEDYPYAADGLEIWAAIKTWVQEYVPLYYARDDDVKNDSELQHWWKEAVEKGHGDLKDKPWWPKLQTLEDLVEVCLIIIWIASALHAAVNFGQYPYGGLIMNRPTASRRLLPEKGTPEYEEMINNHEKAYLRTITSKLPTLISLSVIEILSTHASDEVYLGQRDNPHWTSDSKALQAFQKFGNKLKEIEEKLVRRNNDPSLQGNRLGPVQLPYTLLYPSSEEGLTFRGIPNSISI
Method: The assay was performed using Cayman’s lipoxygenase inhibitor screening assay kit (Catalog No. 760700, Cayman Chemical, USA) according to the manufacturer’s instructions. Briefly, 90 µL of 15-LOX was pipetted into a 96-well plate. Next, 10 µL of test compound at concentrations (2.5, 5.0 and 10 µM) dissolved in DMSO were added to each well. The reaction was initiated by adding 10 µL substrate (AA) and the plate was placed on a shaker for at least 5 minutes. Finally, 100 µL of chromogen (prepared according to manufacturer’s instructions) was added to each well to stop enzyme catalysis and develop the reaction. 100 µL of Assay buffer (0.1 M Tris-HCl, pH7.4) was used in blank wells. […] The absorbance of the solution was measured at λ 490–500 nm. The percentage inhibition was calculated according to the following equation: % inhibition =[(IA−Ainhibitor sample)/IA]×100 where (IA) is the 100% initial activity and (Ainhibitor sample) is the absorbance of the test sample. Dose–response curve was plotted between % inhibition and the drug concentration. The non-linear dose–response curve was used for calculating drug concentration showing 50% enzyme inhibition.

[1] = Superoxide scavenging assay (pyrogallol autoxidation); conditions: for Superoxide scavenging potency relative to ascorbic acid: folds of ascorbic acid; for Superoxide IC50: mean ± SEM of three experiments, pyrogallol autoxidation, 325 nm
Method: The improved pyrogallol autoxidation method was used to determine O2^−. RSA of all synthesized compounds as previously described. Briefly, 50 µL of test compounds (12.5, 25, 50,100, and 200 µg/mL) was added to 2900 µl of […] Tris HCl buffer (0.05 M, pH 7.4) containing 1-mM Na2EDTA. Next, 50 µL of 60-mM pyrogallol in1mM HCl had been thoroughly mixed with the mixture. The absorbance of the reaction mixture was measured at A325 nm every 30 s for 5 min. O2^− RSA was expressed by the oxidation degree of a test group in comparison to that of the control. The absorbance at 325 nm was measured against the Tris-HCl buffer every 30 s for 5 min. The percentage of scavenging effect was calculated using the following equation: O2^− radical scavenging %=[(ΔA325, control/T)−(ΔA325nm, sample/T)/ΔA325nm, control/T]×100 where ΔA325 nm, control is the increase in A325 nm of the reaction mixture without the sample and ΔA325 nm, sample is that for the mixture with the sample; T=5 min. The experiments were performed in triplicate.

In the case of `Cc1ccc(C2=NOC(c3cn(-c4ccccc4)nc3-c3ccc4ccccc4c3)C2)cc1` (stereo not shown) [Compound 5c, 5-(3-Naphthalen-2-yl-1-phenyl-1H-pyrazol-4-yl)-3-p-tolyl-4,5-dihydroisoxazole], the IC50 (Soybean 15-LOX enzyme) is reported as 4230 ± 70 nM, the melting point is reported as 181 to 182 °C and the “Superoxide scavenging potency relative to ascorbic acid” value [1] is reported as 2.8 folds. The “Superoxide IC50” value [1] was 44.54 ± 1.44 µg/mL.

With `Cc1ccc(C2=NN(C(N)=S)C(c3cn(-c4ccccc4)nc3-c3ccc4ccccc4c3)C2)cc1` (stereo not shown) [Compound 6c, 3′-Naphthalen-2-yl-1′-phenyl-5-p-tolyl-3,4-dihydro-1’H-[3,4′]bipyrazolyl-2-carbo thioic acid amide] the IC50 (Soybean 15-LOX enzyme) was 2100 ± 60 nM, the melting point was 184 to 185 °C and the “Superoxide IC50” value [1] was 140.17 ± 1.52 µg/mL.

With `NC(=S)N1N=C(c2ccccc2)CC1c1cn(-c2ccccc2)nc1-c1ccc2ccccc2c1` (stereo not shown) [Compound 6a, 3′-Naphthalen-2-yl-5,1′-diphenyl-3,4-dihydro-1’H-[3,4′]bipyrazolyl-2-carbothioic acid amide] the “15-LOX inhibition potency relative to quercetin” value (Soybean 15-LOX enzyme) was 2.2 folds, the IC50 (Soybean 15-LOX enzyme) was 1500 ± 60 nM and the melting point was 198 to 199 °C. For the same compound, the “Superoxide IC50” value [1] was 127.25 ± 1.47 µg/mL.

With `c1ccc(C2=NNC(c3cn(-c4ccccc4)nc3-c3ccc4ccccc4c3)C2)cc1` (stereo not shown) [Compound 3a, 3′-Naphthalen-2-yl-5,1′-diphenyl-3,4-dihydro-2H,1’H-[3,4′]bipyrazole] the IC50 (Soybean 15-LOX enzyme) was 2230 ± 70 nM, the melting point was 172 to 173 °C and the “Superoxide scavenging potency relative to ascorbic acid” value [1] was 2.5 folds. The “Superoxide IC50” value [1] was 50.42 ± 1.45 µg/mL.

In the case of `Clc1ccc(C2=NN(c3ccccc3)C(c3cn(-c4ccccc4)nc3-c3ccc4ccccc4c3)C2)cc1Cl` (stereo not shown) [Compound 4e, 5-(3,4-Dichlorophenyl)-3′-naphthalen-2-yl-2,1′-diphenyl-3,4-dihydro-2H,1’H-[3,4′]-bipyrazole], the IC50 (Soybean 15-LOX enzyme) is reported as 3530 ± 70 nM, the melting point is reported as 172 to 173 °C and the “Superoxide IC50” value [1] is reported as 130.19 ± 1.1 µg/mL.

In the case of `COc1ccc(C2=NOC(c3cn(-c4ccccc4)nc3-c3ccc4ccccc4c3)C2)cc1` (stereo not shown) [Compound 5b, 3-(4-Methoxyphenyl)-5-(3-naphthalen-2-yl-1-phenyl-1H-pyrazol-4-yl)-4,5-dihydro isoxazole], the IC50 (Soybean 15-LOX enzyme) is reported as 4370 ± 90 nM, the melting point is reported as 197 to 198 °C and the “Superoxide IC50” value [1] is reported as 101.8 ± 1.39 µg/mL.

In the case of `NC(=S)N1N=C(c2ccc(Cl)c(Cl)c2)CC1c1cn(-c2ccccc2)nc1-c1ccc2ccccc2c1` (stereo not shown) [Compound 6e], the “15-LOX inhibition potency relative to quercetin” value (Soybean 15-LOX enzyme) is reported as 2.1 folds, the IC50 (Soybean 15-LOX enzyme) is reported as 1570 ± 30 nM and the melting point is reported as 180 to 181 °C. The “Superoxide IC50” value [1] was 87.31 ± 1.58 µg/mL.
